Values joined by “and” are separate entries in the source; they are usually repeats but may differ in a detail not shown here. Equal values may be shown once.
Tested on: radiation-induced fibrosarcoma (RIF) tumors
Experiment: Photofrin-mediated PDT of RIF tumors: explicit dosimetry and tumor regrowth (cure index)
Assay type: in vivo, mice
Settings: for Photofrin post: in tumor after PDT; for Photofrin post / Photofrin pre / [ROS]rx, mea / [ROS]rxcal / CI (cure index, 1−k/kctr): per mouse; for Photofrin pre: in tumor before PDT, 5 mg/kg i.v., 24 h, 5 mg/kg; for [ROS]rx, mea / [ROS]rxcal: 3 mm; for [ROS]rx, mea: measured [^3O2](t); for [ROS]rxcal: model-calculated [^3O2]; for CI (cure index, 1−k/kctr): tumor growth up to 14 days
Experimental: Radiation-induced fibrosarcomas (RIF) cells were cultured and injected in the right shoulder regions of 6-8 weeks old female C3H mice (NCI-Frederick, Frederick, MD). 30 μl were injected at a concentration of 1×10^7 cells/ml, as described previously.^8-11 Animals were under the care of the University of Pennsylvania Laboratory Animal Resources. All studies were approved by the University of Pennsylvania Institutional Animal Care and Use Committee. The fur of the treatment region was clipped prior to cell inoculation, and the treatment area was depilated with Nair (Church & Dwight Co., Inc., Ewing, NJ) at least 24 hours prior to measurements and treatment. Tumors were treated when they were 3˜5 mm in diameter. Mice were given a chlorophyll-free (alfalfa-free) rodent diet (Harlan laboratories Inc., Indianapolis, IN) at least 10 days prior to treatment to eliminate the fluorescence signal from chlorophyll-breakdown products, which have a similar range to the photosensitizer spectra obtained in this study. The photosensitizer fluorescence was used to determine the in vivo concentrations in this study, using methods described previously.^7-9
Treatment delivery was done using an optical fiber with a microlens attachment coupled to a diode laser with the appropriate wavelength for each photosensitizer. A 630 nm laser (Biolitec, Inc., East Longmeadow, MA, USA) was used for Photofrin after a 18˜24 hours drug-light interval. The in-air fluence rate (ϕair) is defined as the calculated irradiance determined by the laser power divided by the treatment area (1 cm diameter spot size). The in-air fluence was calculated by multiplying the in-air fluence rate by the treatment time. RIF tumor-bearing mice with no photosensitizer and no light excitation were used as controls (n=5).
Photofrin (Pinnacle Biologics, Chicago, Illinois) at a dosage of 5 mg/kg was injected through the mouse tail vein as described previously.^12,13 At a 24-h drug-light interval, superficial irradiation of the tumor was performed with a 630-nm laser (Biolitec AG., A-1030, Vienna). A microlens fiber was coupled to the laser to irradiate the tumor uniformly. Animals were assigned to four light dose groups, and each group was comprised of 2 to 3 subgroups with different ϕ. There were a total of 5 treatment groups: 50 J/cm^2 at 150 mW/cm^2, 250 J/cm^2 at 75 mW/cm^2, 135 J/cm^2 at 75 mW/cm^2, 75 J/cm^2 at 75 mW/cm^2, and 100 J/cm^2 at 150 mW/cm^2. Tumor-bearing mice that received neither light irradiation nor Photofrin were used as controls.
Following the drug-light interval of 18˜24 hours, measurements of light fluence rate, photosensitizer concentration and [O2] were performed. Photofrin fluorescence spectra was obtained using a custom-made multi-fiber contact probe before and after PDT.^14 The probe is connected to a 405 nm laser (Power Technology Inc., Little Rock, AR, USA) for the fluorescence excitation of Photofrin and a multichannel CCD spectrograph (InSpectrum, Princeton Instruments, Trenton, NJ, USA) for the collection of the spectra. The in vivo photosensitizer concentration was obtained by comparing the in vivo Photofrin spectra with those of phantoms with known photosensitizer concentrations. The attenuation of the fluorescence signal due to the light absorption and scattering by tissues was corrected by applying an empirical correction factor described elsewhere. The accuracy of in vivo measurements was validated by ex vivo measurements in separate mice.^15.16
The in vivo tissue oxygen partial pressure pO2 was measured during PDT treatment using a phosphorescence-based ^3O2 probe (OxyLite Pro, Oxford Optronix, Oxford, United Kingdom). A bare-fiber-type probe (NX-BF/O/E, Oxford Optronix, Oxford, United Kingdom) was placed inside the tumor at a 3 mm depth from the treatment surface. […]

## Photofrin
75.00 mW/cm2 for 1500.00 s
  Photofrin post: 2.80 µM and 3.70 µM and 3.01 µM
  Photofrin pre: 6.50 µM and 6.70 µM and 6.00 µM
  [ROS]rx, mea: 0.82 mM and 0.73 mM and 0.65 mM
  [ROS]rxcal: 0.89 mM and 0.93 mM and 0.87 mM
  CI (cure index, 1−k/kctr): 0.20 and 0.22 and 0.13
75.00 mW/cm2 for 1800.00 s
  Photofrin post: 4.90 µM and 3.35 µM and 3.00 µM and 3.50 µM
  Photofrin pre: 6.90 µM and 6.80 µM and 5.20 µM and 5.67 µM
  [ROS]rx, mea: 1.13 mM and 0.96 mM and 1.00 mM and 1.10 mM
  [ROS]rxcal: 1.39 mM and 1.24 mM and 1.07 mM and 1.09 mM
  CI (cure index, 1−k/kctr): 1.00 and 0.56 and 0.64 and 0.82
75.00 mW/cm2 for 3333.00 s
  Photofrin post: 3.02 µM and 2.44 µM and 2.48 µM and 2.20 µM
  Photofrin pre: 6.47 µM and 4.20 µM and 4.54 µM and 4.50 µM
  [ROS]rx, mea: 1.40 mM and 1.41 mM and 1.39 mM and 1.20 mM
  [ROS]rxcal: 2.33 mM and 1.73 mM and 1.89 mM and 1.87 mM
  CI (cure index, 1−k/kctr): 1.00
150.00 mW/cm2 for 333.00 s
  Photofrin post: 3.07 µM and 1.19 µM and 2.80 µM and 2.30 µM
  Photofrin pre: 6.80 µM and 3.07 µM and 5.84 µM and 5.10 µM
  [ROS]rx, mea: 0.27 mM (2×) and 0.21 mM and 0.38 mM
  [ROS]rxcal: 0.29 mM and 0.235 mM and 0.39 mM and 0.32 mM
  CI (cure index, 1−k/kctr): 0.03 and 0.00 and 0.01 and 0.06
150.00 mW/cm2 for 666.00 s
  Photofrin post: 2.50 µM and 3.54 µM and 4.88 µM and 3.49 µM
  Photofrin pre: 6.40 µM and 7.20 µM and 7.84 µM and 6.79 µM
  [ROS]rx, mea: 0.77 mM and 0.79 mM and 0.88 mM and 0.78 mM
  [ROS]rxcal: 0.69 mM and 0.81 mM (2×) and 0.8 mM
  CI (cure index, 1−k/kctr): 0.15 and 0.25 and 0.42 and 0.27
This study
  PDT dose threshold: 439 mM J/cm^2

— patent publication US12324927B2, “Methods and systems for photodynamic therapy calculations” (THE TRUSTEES OF THE UNIVERSITY OF PENNSYLVANIA, priority 2018, dated 2025)
